Measurements: article PMC8151276, “An Integrated Approach toward NanoBRET Tracers for Analysis of GPCR Ligand Engagement” (Molecules, 2021)

Key:
Assay type in all cases: binding
HTR1B = biological target: T1, HTR1B (Homo sapiens, UniProt P28222); test: NanoBRET screen HiBiT-HTR1B in HEK293; settings: HTR1B
T1 construct: purchased Promega (in-house HiBiT-GPCR construct library, NanoBRET)
Method: (§1) Each tracer candidate was screened across the entire library of HiBiT-GPCR constructs using NanoBRET as the detection modality. As depicted in Figure 4A, the specificity of interactions was evaluated through decrease in BRET due to competitive displacement of a bound tracer by excess parental compound. Each tracer was analyzed for binding to each HiBiT-GPCR fusion in the absence and in the presence of competing parental compound. Briefly, HEK293 cells were transfected with HiBiT-GPCR constructs diluted into promoterless DNA to reduce expression and maximize translocation to the cell surface. Each tracer candidate was then screened at concentrations of 1 μM and 0.1 μM across cells expressing these fusions. Cells were treated for 1.5 h with tracer either alone or in the presence of 20 μM competing parental compound (i.e., control). BRET was measured upon addition of purified LgBiT and subsequent complementation with HiBiT genetically fused to a GPCR. The specificity of interactions was assessed through a decrease in BRET signal due to competitive displacement of the bound tracer. To further gauge the robustness of these interactions, the fold response over the control (i.e., BRETtracer/BRETcontrol) was calculated. We chose a 1.5-fold response, which translates to ≥7-fold signal over noise as the minimal threshold required to score an interaction as positive. […]. Below we highlight the screening results obtained for our exemplary fluorescent tracers based on Clozapine, Amitriptyline and AZD1283.
(§2) HiBiT-GPCR DNA constructs were diluted in 10 mM Tris pH 8 to a final concentration of 0.01 μg/μL, arrayed in 96-well plates and stored at −20 °C. For transfection, HEK293 cells were suspended in Opti-MEM (without phenol red) supplemented with 2% fetal bovine serum (Seradigm) and 100 units/mL penicillin–streptomycin (Gibco) at a final concentration of 220,000 cells/mL and dispensed into white 96-well plates at 90 μL/well. Subsequent transfections and screens were carried using an Agilent Bravo Automated Liquid Handling Platform. First, the 96-well HiBiT DNA arrays were diluted 25-fold in Opti-MEM (without serum or phenol red) to a final concentration of 0.0004 μg/μL and 20 μL of the diluted DNAs were transferred into new 96-well plates. Next, promoterless carrier DNA (1 μg/μL) was diluted 25-fold (0.04 μg/μL) and then dispensed into the diluted arrays at 20 μL/well. Following brief mixing, Viafect transfection reagent (Promega) diluted 16-fold into Opti-MEM was dispensed into the plates at 40 μL/well. After mixing by pipetting, plates were incubated for 10 min on the pipetting station deck. The DNA-transfection reagent complexes were then added to plates containing cells. To facilitate the screen, 10 μL of DNA-transfection reagent complexes were added in duplicates to the top 4 and bottom 4 rows, resulting in two identical 48-well arrays per plate. Plates with transfected cells were incubated for 18–20 h at 37 °C/5% CO2. A screen of each tracer across the entire library using two different concentrations requires duplicate plates of transfected cells. Depending on the number of tracers being screened, transfections can be scaled up using the same ratios. The next day, for each tracer, four 20× screening solutions in tracer dilution buffer (Promega) were prepared: two duplicates at final concentration of 20 μM and two duplicates at a final concentration of 2 μM. A competing unmodified compound was added to one of each duplicate at a final concentration of 400 μM. The four resulting solutions were diluted 4-fold in Opti-MEM without serum or phenol red to generate 5× solutions (5 µM and 0.5 µM tracer +/− 100 μM competing compound). To screen the library, a BioTek MultiFlo FX liquid dispenser was used to dispense 22.5 µL of tracer solution to the top 4 rows and 22.5 µL tracer + competing compound solution to the 4 bottom rows. Plates were briefly mixed on an orbital shaker and incubated for 1.5 h at room temperature. […]

LGR4 = biological target: T2, LGR4 (Homo sapiens, UniProt Q9BXB1); test: NanoBRET screen HiBiT-LGR4 in HEK293; settings: LGR4
T2 construct: purchased Promega (in-house HiBiT-GPCR construct library, NanoBRET)
T2 sequence (Q9BXB1 25-951): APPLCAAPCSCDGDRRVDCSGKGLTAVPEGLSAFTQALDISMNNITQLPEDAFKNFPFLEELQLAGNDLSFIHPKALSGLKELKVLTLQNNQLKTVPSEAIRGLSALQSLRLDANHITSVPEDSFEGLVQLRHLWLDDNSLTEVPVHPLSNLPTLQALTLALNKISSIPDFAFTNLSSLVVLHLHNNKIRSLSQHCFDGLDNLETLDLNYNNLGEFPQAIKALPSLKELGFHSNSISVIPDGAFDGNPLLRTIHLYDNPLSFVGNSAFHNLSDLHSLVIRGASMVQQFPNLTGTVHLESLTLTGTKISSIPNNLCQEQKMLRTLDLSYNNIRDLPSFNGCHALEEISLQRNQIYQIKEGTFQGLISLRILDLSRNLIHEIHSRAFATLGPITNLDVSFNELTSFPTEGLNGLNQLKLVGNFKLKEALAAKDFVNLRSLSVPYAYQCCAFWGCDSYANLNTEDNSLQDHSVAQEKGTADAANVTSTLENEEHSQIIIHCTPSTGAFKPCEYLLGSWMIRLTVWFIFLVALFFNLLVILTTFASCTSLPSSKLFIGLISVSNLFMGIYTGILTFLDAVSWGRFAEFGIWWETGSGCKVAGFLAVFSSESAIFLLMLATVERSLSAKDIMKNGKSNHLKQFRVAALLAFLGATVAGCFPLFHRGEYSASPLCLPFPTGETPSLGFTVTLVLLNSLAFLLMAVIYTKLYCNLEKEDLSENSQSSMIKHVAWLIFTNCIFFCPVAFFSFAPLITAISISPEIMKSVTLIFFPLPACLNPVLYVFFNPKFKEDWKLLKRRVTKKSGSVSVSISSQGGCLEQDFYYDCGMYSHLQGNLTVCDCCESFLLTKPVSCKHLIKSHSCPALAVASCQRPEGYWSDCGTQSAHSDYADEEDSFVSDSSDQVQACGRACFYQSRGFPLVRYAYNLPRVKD
Method: as §1, §2

OXER1 = biological target: T3, OXER1 (Homo sapiens, UniProt Q8TDS5); test: NanoBRET screen HiBiT-OXER1 in HEK293; settings: OXER1
T3 construct: purchased Promega (in-house HiBiT-GPCR construct library, NanoBRET)
T3 sequence (Q8TDS5 whole entry): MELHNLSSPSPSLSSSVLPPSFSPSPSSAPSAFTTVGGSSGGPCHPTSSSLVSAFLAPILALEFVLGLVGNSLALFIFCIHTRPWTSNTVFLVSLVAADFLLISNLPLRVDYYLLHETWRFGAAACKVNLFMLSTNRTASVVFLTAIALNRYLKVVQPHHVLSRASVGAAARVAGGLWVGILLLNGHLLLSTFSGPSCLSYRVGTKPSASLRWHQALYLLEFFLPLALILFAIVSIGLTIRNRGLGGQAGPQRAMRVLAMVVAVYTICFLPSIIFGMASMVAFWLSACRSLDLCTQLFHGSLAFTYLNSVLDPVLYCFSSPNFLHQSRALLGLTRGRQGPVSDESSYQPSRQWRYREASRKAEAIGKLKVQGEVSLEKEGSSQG
Method: as §1, §2

MTNR1B = biological target: T4, MTNR1B (Homo sapiens, UniProt P49286); test: NanoBRET screen HiBiT-MTNR1B in HEK293; settings: MTNR1B
T4 construct: purchased Promega (in-house HiBiT-GPCR construct library, NanoBRET)
T4 sequence (P49286 1-362): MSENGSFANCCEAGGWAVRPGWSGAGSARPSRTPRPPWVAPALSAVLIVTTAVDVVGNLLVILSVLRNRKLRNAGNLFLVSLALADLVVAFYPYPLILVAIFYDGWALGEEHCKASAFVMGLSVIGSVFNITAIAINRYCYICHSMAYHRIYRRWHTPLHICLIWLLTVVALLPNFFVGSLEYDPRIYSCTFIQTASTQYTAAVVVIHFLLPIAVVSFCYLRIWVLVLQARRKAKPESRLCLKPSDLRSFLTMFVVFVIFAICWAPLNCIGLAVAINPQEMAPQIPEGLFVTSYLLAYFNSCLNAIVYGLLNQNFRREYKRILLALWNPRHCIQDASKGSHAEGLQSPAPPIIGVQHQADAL
Method: as §1, §2

T1 sequence (P28222 whole entry): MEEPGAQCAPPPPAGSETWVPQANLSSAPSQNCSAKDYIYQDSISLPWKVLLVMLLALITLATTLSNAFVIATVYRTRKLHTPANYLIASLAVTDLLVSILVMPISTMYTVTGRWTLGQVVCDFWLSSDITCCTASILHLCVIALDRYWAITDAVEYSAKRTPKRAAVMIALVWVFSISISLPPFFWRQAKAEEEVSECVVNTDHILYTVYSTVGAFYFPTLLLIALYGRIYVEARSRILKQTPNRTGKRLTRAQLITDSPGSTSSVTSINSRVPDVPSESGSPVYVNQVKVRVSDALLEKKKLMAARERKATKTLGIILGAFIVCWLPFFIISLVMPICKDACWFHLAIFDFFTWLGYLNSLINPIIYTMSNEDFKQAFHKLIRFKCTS

Row | SMILES | NanoBRET Fold Response (HTR1B; tracer 0.1μM) | NanoBRET Fold Response (HTR1B; tracer 1μM) | NanoBRET Fold Response (LGR4; tracer 0.1μM) | NanoBRET Fold Response (LGR4; tracer 1μM) | NanoBRET Fold Response (OXER1; tracer 0.1μM) | NanoBRET Fold Response (OXER1; tracer 1μM) | NanoBRET Fold Response (MTNR1B; tracer 0.1μM) | NanoBRET Fold Response (MTNR1B; tracer 1μM) | NanoBRET Fold Response (HTR1B; 0.1μM) | NanoBRET Fold Response (HTR1B; 1μM) | NanoBRET Fold Response (LGR4; 0.1μM) | NanoBRET Fold Response (LGR4; 1μM) | NanoBRET Fold Response (OXER1; 0.1μM) | NanoBRET Fold Response (OXER1; 1μM) | NanoBRET Fold Response (MTNR1B; 0.1μM) | NanoBRET Fold Response (MTNR1B; 1μM)
1 | O=C(CCOCCOCCOCCOCCNC(=O)CCc1ccc2n1[B-](F)(F)[N+]1=C(c3ccc[nH]3)C=CC1=C2)NCCCN1CCN(C2=Nc3ccccc3Oc3ccc(Cl)cc32)CC1 [Loxapine-a-2-NB590] | 2.42 | 2.84 | 0.97 | 1.04 | 0.93 | 1.09 | 0.44 | 1.04 | – | – | – | – | – | – | – | –
2 | COc1ccccc1N1CCN(CCCCN2C(=O)c3ccc(CNC(=O)CCOCCOCCOCCOCCNC(=O)CCc4ccc5n4[B-](F)(F)[N+]4=C(c6ccc[nH]6)C=CC4=C5)cc3C2=O)CC1 [NAN-190-2-NB590] | 1.73 | 1.25 | 1.09 | 0.99 | 0.95 | – | – | 1.00 | – | – | – | – | – | – | – | –
3 | COc1ccccc1N1CCN(CCCCN2C(=O)c3ccc(CNC(=O)CCOCCNC(=O)c4ccc(CNC(=O)CCc5ccc6n5[B-](F)(F)[N+]5=C(c7ccc[nH]7)C=CC5=C6)cc4)cc3C2=O)CC1 [NAN-190-3-NB590] | 1.38 | 1.42 | 0.88 | 0.95 | 1.34 | 0.63 | 1.20 | 1.15 | – | – | – | – | – | – | – | –
4 | O=C(CCc1ccc2n1[B-](F)(F)[N+]1=C(c3ccc[nH]3)C=CC1=C2)NCc1ccc(C(=O)NCCOCCC(=O)N[C@@H]2CC[C@@]3(O)[C@H]4Cc5ccc(O)c6c5[C@@]3(CCN4CC3CC3)[C@H]2O6)cc1 [Naltrexone-3-NB590] | 1.01 | 1.33 | 0.94 | 0.87 | 0.78 | 0.74 | 0.94 | 0.66 | – | – | – | – | – | – | – | –
5 | Cc1cc2c(s1)Nc1ccccc1N=C2N1CCN(CCCNC(=O)CCOCCOCCOCCOCCNC(=O)CCc2ccc3n2[B-](F)(F)[N+]2=C(c4ccc[nH]4)C=CC2=C3)CC1 [Olanzapine-a-2-NB590] | 2.53 | 2.81 | 0.98 | 1.30 | 0.96 | 1.04 | 0.96 | 0.94 | – | – | – | – | – | – | – | –
6 | O=C(CCc1ccc2n1[B-](F)(F)[N+]1=C(c3ccc[nH]3)C=CC1=C2)NCc1ccc(C(=O)NCCOCCOCCNCC(O)COc2cccc3ccccc23)cc1 (stereo not drawn) [Propranolol-3-NB590] | – | – | – | – | – | – | – | – | 0.99 | 1.06 | 0.97 | 1.02 | 1.09 | 1.00 | 0.96 | 0.98
7 | O=C(CCc1ccc2n1[B-](F)(F)[N+]1=C(c3ccc[nH]3)C=CC1=C2)NCCOCCOCCNC(=O)OCCOCCN1CCN(C2=Nc3ccccc3Sc3ccccc32)CC1 [Quetiapine-a-2-NB590] | 1.03 | 1.58 | 1.00 | 1.05 | 0.99 | 0.98 | 1.11 | 0.92 | – | – | – | – | – | – | – | –
8 | Cc1nc2n(c(=O)c1CCN1CCC(c3noc4cc(F)ccc34)CC1)CCCC2OC(=O)NCCOCCOCCOCCOCCNC(=O)CCc1ccc2n1[B-](F)(F)[N+]1=C(c3ccc[nH]3)C=CC1=C2 (stereo not drawn) [Risperidone-2-NB590] | 3.33 | 2.70 | 0.93 | 0.98 | 1.03 | 1.18 | 0.99 | 0.92 | – | – | – | – | – | – | – | –
9 | CC(C)N(CC[C@H](c1ccccc1)c1cc(CCNC(=O)CCOCCOCCOCCOCCNC(=O)CCc2ccc3n2[B-](F)(F)[N+]2=C(c4ccc[nH]4)C=CC2=C3)ccc1O)C(C)C [Tolterodine-2-NB590] | 0.79 | 1.12 | 1.12 | 1.24 | 0.73 | 1.09 | 0.95 | 0.79 | – | – | – | – | – | – | – | –
10 | CC(C)N(CC[C@H](c1ccccc1)c1cc(CCNC(=O)c2ccc(CNC(=O)CCc3ccc4n3[B-](F)(F)[N+]3=C(c5ccc[nH]5)C=CC3=C4)cc2)ccc1O)C(C)C [Tolterodine-BZ-NB590] | 1.12 | 1.33 | 1.02 | 1.02 | 1.00 | 1.06 | 0.97 | 1.04 | – | – | – | – | – | – | – | –
